Bridge positions count the residues as written; N and C are the ends. Square brackets hold non-standard residues; d marks the D form. Peptide text beside a SMILES is read from it. * marks the point of attachment. ξ: configuration not given here. Bip = N[C@@H](Cc1ccc(-c2ccccc2)cc1)C(=O)O; Phe(3-Me) = Cc1cccc(C[C@H](N)C(=O)O)c1; Cha = N[C@@H](CC1CCCCC1)C(=O)O; Cit = NC(=O)NCCC[C@H](N)C(=O)O; Carboxymethyl = O=C(O)C*; Orn = NCCC[C@H](N)C(=O)O; Aun = NCCCCCCCCCCC(=O)O; Dab = NCC[C@H](N)C(=O)O; Dap = NC[C@H](N)C(=O)O; AEEA = NCCOCCOCC(=O)O; ξC = NC(CS)C(=O)O

T1 sequence (Q15116 25-288): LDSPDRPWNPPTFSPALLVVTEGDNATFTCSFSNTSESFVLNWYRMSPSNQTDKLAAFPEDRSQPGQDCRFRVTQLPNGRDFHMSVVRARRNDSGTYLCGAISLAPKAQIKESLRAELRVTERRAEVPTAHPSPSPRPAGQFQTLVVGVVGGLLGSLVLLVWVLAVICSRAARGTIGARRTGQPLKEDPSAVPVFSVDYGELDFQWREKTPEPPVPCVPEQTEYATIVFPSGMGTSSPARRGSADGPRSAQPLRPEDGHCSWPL

The assay addresses T1, PD-1/PD-L1 interaction (PE-labeled human PD-L1-Ig binding to Jurkat cell line over-expressing human PD-1) (Homo sapiens, UniProt Q15116).
T1 construct: expressed in transfected cells; host or cells: Jurkat
Briefly: Jurkat-PD-1 Cell Binding High-Content Screening Assay (CBA). Format: cell-based. To be noted: Jurkat cell line over-expressing human PD-1; PE-labeled PD-L1-Ig 20 nM final; read-out: Jurkat hPD1-PDL1 IC50. Put shortly: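 Jurkat cells over-expressing human PD-1 (8×10^3 per well, DMEM/10% FCS) preincubated with compound 2 h at 37° C, then PE-labeled human PD-L1-Ig (20 nM final) added for 1 h. Cells fixed with paraformaldehyde, Hoechst-stained, and bound fluorescence quantified by high-content imaging.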
As a reminder, the IC50 is the midpoint of a concentration-inhibition curve. With `Cc1cccc(C[C@@H]2NC(=O)[C@H](CC(=O)O)NC(=O)[C@H](Cc3ccc(OCC(=O)O)cc3)NC(=O)[C@H](CN)NC(=O)CSCC(C(=O)NCCOCCOCC(=O)NCCCCCCCCCCC(=O)O)NC(=O)[C@H](CN)NC(=O)[C@H](C(C)C)NC(=O)[C@H](CC3CCCCC3)NC(=O)[C@H](CCN)NC(=O)[C@@H](CC(C)C)NC(=O)[C@H](CCCN)NC(=O)[C@H](CCCNC(N)=O)NC(=O)[C@H](Cc3ccc(-c4ccccc4)cc3)NC(=O)[C@H](C(C)C)NC2=O)c1` (stereo partly drawn) [Compound 2645] ({CH2CO}-[Dap]Y(Carboxymethyl)D[Phe(3-Me)]V[Bip][Cit][Orn][dL][Dab][Cha]V[Dap][ξC][AEEA][Aun]-OH; thioether N-14), the IC50 is 15.4 nM.

In the case of `CC[C@H](C)[C@@H]1NC(=O)[C@H](Cc2ccc(-c3ccccc3)cc2)NC(=O)[C@H](C(C)C)NC(=O)[C@H](Cc2cccc(C)c2)NC(=O)[C@H](CC(=O)O)NC(=O)[C@H](Cc2ccc(OCC(=O)O)cc2)NC(=O)[C@H](CN)NC(=O)CSCC(C(=O)NCCOCCOCC(=O)NCCCCCCCCCCC(=O)O)NC(=O)[C@H](CN)NC(=O)[C@H](C(C)C)NC(=O)[C@H](CC2CCCCC2)NC(=O)[C@H](CCN)NC(=O)[C@@H](CC(C)C)NC(=O)[C@H](CCCN)NC1=O` (stereo partly drawn) [Compound 2646] ({CH2CO}-[Dap]Y(Carboxymethyl)D[Phe(3-Me)]V[Bip]I[Orn][dL][Dab][Cha]V[Dap][ξC][AEEA][Aun]-OH; thioether N-14), the IC50 is 13.2 nM.

Take `Cc1cccc(C[C@@H]2NC(=O)[C@H](CC(=O)O)NC(=O)[C@H](Cc3ccc(OCC(=O)O)cc3)NC(=O)[C@H](CN)NC(=O)CSCC(C(=O)NCCOCCOCC(=O)NCCCCCCCCCCC(=O)O)NC(=O)[C@H](CCCN)NC(=O)[C@H](C(C)C)NC(=O)[C@H](CC3CCCCC3)NC(=O)[C@H](CCN)NC(=O)[C@@H](CC(C)C)NC(=O)[C@H](CCCN)NC(=O)[C@H](CCCNC(N)=O)NC(=O)[C@H](Cc3ccc(-c4ccccc4)cc3)NC(=O)[C@H](C(C)C)NC2=O)c1` (stereo partly drawn) [Compound 2647] ({CH2CO}-[Dap]Y(Carboxymethyl)D[Phe(3-Me)]V[Bip][Cit][Orn][dL][Dab][Cha]V[Orn][ξC][AEEA][Aun]-OH; thioether N-14): the IC50 was 7.7 nM.

As for `CC[C@H](C)[C@@H]1NC(=O)[C@H](Cc2ccc(-c3ccccc3)cc2)NC(=O)[C@H](C(C)C)NC(=O)[C@H](Cc2cccc(C)c2)NC(=O)[C@H](CC(=O)O)NC(=O)[C@H](Cc2ccc(OCC(=O)O)cc2)NC(=O)[C@H](CN)NC(=O)CSCC(C(=O)NCCOCCOCC(=O)NCCCCCCCCCCC(=O)O)NC(=O)[C@H](CCCN)NC(=O)[C@H](C(C)C)NC(=O)[C@H](CC2CCCCC2)NC(=O)[C@H](CCN)NC(=O)[C@@H](CC(C)C)NC(=O)[C@H](CCCN)NC1=O` (stereo partly drawn) [Compound 2648] ({CH2CO}-[Dap]Y(Carboxymethyl)D[Phe(3-Me)]V[Bip]I[Orn][dL][Dab][Cha]V[Orn][ξC][AEEA][Aun]-OH; thioether N-14), the IC50 was found to be 8.9 nM. Consider `Cc1cccc(C[C@@H]2NC(=O)[C@H](CC(=O)O)NC(=O)[C@H](Cc3ccc(OCC(=O)O)cc3)NC(=O)[C@H](CN)NC(=O)CSC[C@@H](C(=O)N[C@@H](CCCCN)C(=O)NCCOCCOCC(=O)NCCCCCCCCCCC(=O)O)NC(=O)[C@H](CN)NC(=O)[C@H](C(C)C)NC(=O)[C@H](CC3CCCCC3)NC(=O)[C@H](CCN)NC(=O)[C@@H](CC(C)C)NC(=O)[C@H](CCCN)NC(=O)[C@H](CCCNC(N)=O)NC(=O)[C@H](Cc3ccc(-c4ccccc4)cc3)NC(=O)[C@H](C(C)C)NC2=O)c1` [Compound 2649] ({CH2CO}-[Dap]Y(Carboxymethyl)D[Phe(3-Me)]V[Bip][Cit][Orn][dL][Dab][Cha]V[Dap]CK[AEEA][Aun]-OH; thioether N-14), for which the IC50 was determined as 11.1 nM. With `CC[C@H](C)[C@@H]1NC(=O)[C@H](Cc2ccc(-c3ccccc3)cc2)NC(=O)[C@H](C(C)C)NC(=O)[C@H](Cc2cccc(C)c2)NC(=O)[C@H](CC(=O)O)NC(=O)[C@H](Cc2ccc(OCC(=O)O)cc2)NC(=O)[C@H](CN)NC(=O)CSC[C@@H](C(=O)N[C@@H](CCCCN)C(=O)NCCOCCOCC(=O)NCCCCCCCCCCC(=O)O)NC(=O)[C@H](CN)NC(=O)[C@H](C(C)C)NC(=O)[C@H](CC2CCCCC2)NC(=O)[C@H](CCN)NC(=O)[C@@H](CC(C)C)NC(=O)[C@H](CCCN)NC1=O` [Compound 2650] ({CH2CO}-[Dap]Y(Carboxymethyl)D[Phe(3-Me)]V[Bip]I[Orn][dL][Dab][Cha]V[Dap]CK[AEEA][Aun]-OH; thioether N-14), the half-maximal inhibitory concentration (IC50) is 11.5 nM. As for `Cc1cccc(C[C@@H]2NC(=O)[C@H](CC(=O)O)NC(=O)[C@H](Cc3ccc(OCC(=O)O)cc3)NC(=O)[C@H](CN)NC(=O)CSC[C@@H](C(=O)N[C@@H](CCCCN)C(=O)NCCOCCOCC(=O)NCCCCCCCCCCC(=O)O)NC(=O)[C@H](CCCN)NC(=O)[C@H](C(C)C)NC(=O)[C@H](CC3CCCCC3)NC(=O)[C@H](CCN)NC(=O)[C@@H](CC(C)C)NC(=O)[C@H](CCCN)NC(=O)[C@H](CCCNC(N)=O)NC(=O)[C@H](Cc3ccc(-c4ccccc4)cc3)NC(=O)[C@H](C(C)C)NC2=O)c1` [Compound 2651] ({CH2CO}-[Dap]Y(Carboxymethyl)D[Phe(3-Me)]V[Bip][Cit][Orn][dL][Dab][Cha]V[Orn]CK[AEEA][Aun]-OH; thioether N-14), the IC50 worked out at 9.7 nM. Under `CC[C@H](C)[C@@H]1NC(=O)[C@H](Cc2ccc(-c3ccccc3)cc2)NC(=O)[C@H](C(C)C)NC(=O)[C@H](Cc2cccc(C)c2)NC(=O)[C@H](CC(=O)O)NC(=O)[C@H](Cc2ccc(OCC(=O)O)cc2)NC(=O)[C@H](CN)NC(=O)CSC[C@@H](C(=O)N[C@@H](CCCCN)C(=O)NCCOCCOCC(=O)NCCCCCCCCCCC(=O)O)NC(=O)[C@H](CCCN)NC(=O)[C@H](C(C)C)NC(=O)[C@H](CC2CCCCC2)NC(=O)[C@H](CCN)NC(=O)[C@@H](CC(C)C)NC(=O)[C@H](CCCN)NC1=O` [Compound 2652] ({CH2CO}-[Dap]Y(Carboxymethyl)D[Phe(3-Me)]V[Bip]I[Orn][dL][Dab][Cha]V[Orn]CK[AEEA][Aun]-OH; thioether N-14) stands 6.1 nM. As for `Cc1cccc(C[C@@H]2NC(=O)[C@H](CC(=O)O)NC(=O)[C@H](Cc3ccc(OCC(=O)O)cc3)NC(=O)[C@H](CN)NC(=O)CSC[C@@H](C(=O)N[C@@H](CCCCN)C(=O)NCCOCCOCC(=O)NCCCCCCCCCCC(=O)O)NC(=O)[C@H](CCCNC(=N)N)NC(=O)[C@H](C(C)C)NC(=O)[C@H](CC3CCCCC3)NC(=O)[C@H](CCN)NC(=O)[C@@H](CC(C)C)NC(=O)[C@H](CCCN)NC(=O)[C@H](CCCNC(N)=O)NC(=O)[C@H](Cc3ccc(-c4ccccc4)cc3)NC(=O)[C@H](C(C)C)NC2=O)c1` [Compound 2653] ({CH2CO}-[Dap]Y(Carboxymethyl)D[Phe(3-Me)]V[Bip][Cit][Orn][dL][Dab][Cha]VRCK[AEEA][Aun]-OH; thioether N-14), the IC50 was determined as 11.2 nM.

For the compound `CC[C@H](C)[C@@H]1NC(=O)[C@H](Cc2ccc(-c3ccccc3)cc2)NC(=O)[C@H](C(C)C)NC(=O)[C@H](Cc2cccc(C)c2)NC(=O)[C@H](CC(=O)O)NC(=O)[C@H](Cc2ccc(OCC(=O)O)cc2)NC(=O)[C@H](CN)NC(=O)CSC[C@@H](C(=O)N[C@@H](CCCCN)C(=O)NCCOCCOCC(=O)NCCCCCCCCCCC(=O)O)NC(=O)[C@H](CCCNC(=N)N)NC(=O)[C@H](C(C)C)NC(=O)[C@H](CC2CCCCC2)NC(=O)[C@H](CCN)NC(=O)[C@@H](CC(C)C)NC(=O)[C@H](CCCN)NC1=O` [Compound 2654] ({CH2CO}-[Dap]Y(Carboxymethyl)D[Phe(3-Me)]V[Bip]I[Orn][dL][Dab][Cha]VRCK[AEEA][Aun]-OH; thioether N-14), the IC50 was 5.2 nM.

With `CC(C)C[C@H]1NC(=O)[C@H](CCCN)NC(=O)[C@H](CCCNC(N)=O)NC(=O)[C@H](Cc2ccc(-c3ccccc3)cc2)NC(=O)[C@H](C(C)C)NC(=O)[C@H](Cc2c[nH]c3ccccc23)NC(=O)[C@H](CC(=O)O)NC(=O)[C@H](Cc2ccc(OCC(=O)O)cc2)NC(=O)[C@H](Cc2ccc(OCC(=O)O)cc2)NC(=O)CSC[C@@H](C(=O)NCCOCCOCC(=O)N[C@@H](CCN)C(=O)NCCCCCCCCCCC(=O)O)NC(=O)[C@H](CCCNC(=N)N)NC(=O)[C@H](C(C)C)NC(=O)[C@H](CC2CCCCC2)NC(=O)[C@H](CCN)NC1=O` [Compound 2655] ({CH2CO}-Y(Carboxymethyl)Y(Carboxymethyl)DWV[Bip][Cit][Orn][dL][Dab][Cha]VRC[AEEA][Dab][Aun]-OH; thioether N-14), the IC50 came to 9.4 nM. For the compound `CC[C@H](C)[C@@H]1NC(=O)[C@H](Cc2ccc(-c3ccccc3)cc2)NC(=O)[C@H](C(C)C)NC(=O)[C@H](Cc2c[nH]c3ccccc23)NC(=O)[C@H](CC(=O)O)NC(=O)[C@H](Cc2ccc(OCC(=O)O)cc2)NC(=O)[C@H](Cc2ccc(OCC(=O)O)cc2)NC(=O)CSC[C@@H](C(=O)NCCOCCOCC(=O)N[C@@H](CCN)C(=O)NCCCCCCCCCCC(=O)O)NC(=O)[C@H](CCCNC(=N)N)NC(=O)[C@H](C(C)C)NC(=O)[C@H](CC2CCCCC2)NC(=O)[C@H](CCN)NC(=O)[C@@H](CC(C)C)NC(=O)[C@H](CCCN)NC1=O` [Compound 2656] ({CH2CO}-Y(Carboxymethyl)Y(Carboxymethyl)DWV[Bip]I[Orn][dL][Dab][Cha]VRC[AEEA][Dab][Aun]-OH; thioether N-14), the IC50 stood at 8.2 nM. Under `CC(C)C[C@H]1NC(=O)[C@H](CCCN)NC(=O)[C@H](CCC(=O)O)NC(=O)[C@H](Cc2ccc(-c3ccccc3)cc2)NC(=O)[C@H](C(C)C)NC(=O)[C@H](Cc2c[nH]c3ccccc23)NC(=O)[C@H](CC(=O)O)NC(=O)[C@H](Cc2ccc(OCC(=O)O)cc2)NC(=O)[C@H](CN)NC(=O)CSC[C@@H](C(=O)NCCOCCOCC(=O)N[C@@H](CCN)C(=O)NCCCCCCCCCCC(=O)O)NC(=O)[C@H](CCCCN)NC(=O)[C@H](C(C)C)NC(=O)[C@H](CC2CCCCC2)NC(=O)[C@H](CCN)NC1=O` [Compound 2657] ({CH2CO}-[Dap]Y(Carboxymethyl)DWV[Bip]E[Orn][dL][Dab][Cha]VKC[AEEA][Dab][Aun]-OH; thioether N-14) stands 14.4 nM.

The record behind these values is patent US20260022142A1, “MACROCYCLIC IMMUNOMODULATORS” (Bristol-Myers Squibb Company, priority 2022, published 2026).
